Reference: ChEMBL document CHEMBL1201862, “PubChem BioAssay data set” (2004)
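How tested: cells in 96-well plates exposed to compound for 48 hours at five concentrations. Abbreviation: GI50, concentration required for 50% inhibition of growth.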 Calls of active or inactive are those of the source. Cut-off read from the data, not from the text of the source: active = GI50 up to about 1.1 µM and inactive = higher.

How the values were obtained:
Experiment in all cases: inhibition of tumour cell growth, NCI panel, 48 h
[1] = tested on: UACC-62
[2] = tested on: MDA-MB-231
[3] = tested on: A549
[4] = tested on: PC-3
[5] = tested on: HL-60
[6] = tested on: NCI/ADR-RES
[7] = tested on: MDA-N
[8] = tested on: KM12
[9] = tested on: CCRF-CEM
[10] = tested on: SF-268
[11] = tested on: MDA-MB-435
[12] = tested on: M14
[13] = tested on: SW-620
[14] = tested on: T47D
[15] = tested on: OVCAR-8
[16] = tested on: NCI-H522
[17] = tested on: BT-549
[18] = tested on: COLO 205
[19] = tested on: NCI-H226
[20] = tested on: HOP-92
[21] = tested on: A498
[22] = tested on: SK-MEL-5
[23] = tested on: U-251
[24] = tested on: SK-OV-3
[25] = tested on: SNB-75
[26] = tested on: SR
[27] = tested on: OVCAR-4
[28] = tested on: SN12C
[29] = tested on: DU-145
[30] = tested on: RXF 393
[31] = tested on: HCT-15
[32] = tested on: Hs-578T
[33] = tested on: HCC 2998
[34] = tested on: K562
[35] = tested on: HT-29
[36] = tested on: MCF7
[37] = tested on: LOX IMVI
[38] = tested on: TK-10
[39] = tested on: UO-31
[40] = tested on: HCT-116
[41] = tested on: CAKI-1
[42] = tested on: SK-MEL-2
[43] = tested on: OVCAR-3
[44] = tested on: IGROV-1
[45] = tested on: RPMI-8226
[46] = tested on: NCI-H23
[47] = tested on: SF-539
[48] = tested on: UACC-257
[49] = tested on: MOLT-4
[50] = tested on: Malme-3M
[51] = tested on: SK-MEL-28
[52] = tested on: HOP-62
[53] = tested on: SNB-19
[54] = tested on: 786-0
[55] = tested on: SF-295
[56] = tested on: OVCAR-5
[57] = tested on: ACHN
[58] = tested on: NCI-H460
[59] = tested on: EKVX

COc1cccc2c1/c(=C/c1ccc(N(C)C)cc1)c1cc(-c3ccccc3)[n+](C)n12
GI50 [1]: 0.182 µM (active)
GI50 [2]: 0.259 µM (active)
GI50 [3]: 0.112 µM (active)
GI50 [4]: 0.0321 µM (active)
GI50 [5]: 0.0155 µM (active)
GI50 [6]: 3.19 µM (inactive)
GI50 [7]: 0.0826 µM (active)
GI50 [8]: 0.107 µM (active)
GI50 [9]: 0.0571 µM (active)
GI50 [10]: 0.109 µM (active)
GI50 [11]: 0.0773 µM (active)
GI50 [12]: 0.126 µM (active)
GI50 [13]: 0.0421 µM (active)
GI50 [14]: 0.0964 µM (active)
GI50 [15]: 0.0446 µM (active)
GI50 [16]: 0.168 µM (active)
GI50 [17]: 0.0875 µM (active)
GI50 [18]: 0.0272 µM (active)
GI50 [19]: 0.177 µM (active)
GI50 [20]: 0.0414 µM (active)
GI50 [21]: 0.305 µM (active)
GI50 [22]: 0.155 µM (active)
GI50 [23]: < 0.0158 µM (active)
GI50 [24]: 0.223 µM (active)
GI50 [25]: 0.189 µM (active)
GI50 [26]: 0.0385 µM (active)
GI50 [27]: 0.344 µM (active)
GI50 [28]: 0.0331 µM (active)
GI50 [29]: 0.0986 µM (active)
GI50 [30]: 0.528 µM (active)
GI50 [31]: 0.471 µM
GI50 [32]: 0.147 µM (active)
GI50 [33]: 0.0348 µM (active)
GI50 [34]: 0.0493 µM (active)
GI50 [35]: 0.0736 µM (active)
GI50 [36]: 0.0957 µM (active)
GI50 [37]: 0.153 µM (active)
GI50 [38]: 0.165 µM (active)
GI50 [39]: 0.295 µM (active)
GI50 [40]: 0.107 µM (active)
GI50 [41]: 0.804 µM (active)
GI50 [42]: 0.131 µM (active)
GI50 [43]: 0.0857 µM (active)
GI50 [44]: 0.083 µM (active)
GI50 [45]: 0.0202 µM (active)
GI50 [46]: 0.131 µM (active)
GI50 [47]: 0.169 µM (active)
GI50 [48]: 0.113 µM (active)
GI50 [49]: 0.0897 µM (active)
GI50 [50]: 0.221 µM (active)
GI50 [51]: 0.239 µM (active)
GI50 [52]: 0.218 µM (active)
GI50 [53]: 0.0933 µM (active)
GI50 [54]: 0.074 µM (active)
GI50 [55]: 0.0813 µM (active)
GI50 [56]: 0.509 µM (active)
GI50 [57]: 0.216 µM (active)
GI50 [58]: 0.106 µM (active)

c1ccc2sc(C3(N4CCCCC4)CCCCCC3)cc2c1
GI50 [59]: 22.9 µM (inactive)
GI50 [1]: 25.4 µM (inactive)
GI50 [2]: 23 µM (inactive)
GI50 [3]: 30 µM (inactive)
GI50 [4]: 15.5 µM (inactive)
GI50 [5]: 2.1 µM (inactive)
GI50 [6]: 20.5 µM (inactive)
GI50 [7]: 34.9 µM (inactive)
GI50 [8]: 17.1 µM (inactive)
GI50 [9]: 13.2 µM (inactive)
GI50 [10]: 25.4 µM (inactive)
GI50 [11]: 22.3 µM (inactive)
GI50 [12]: 27 µM (inactive)
GI50 [13]: 12 µM (inactive)
GI50 [14]: 14.5 µM (inactive)
GI50 [15]: 26.1 µM (inactive)
GI50 [16]: 17.5 µM (inactive)
GI50 [17]: 24.7 µM (inactive)
GI50 [18]: 16.6 µM (inactive)
GI50 [19]: 17.3 µM (inactive)
GI50 [20]: 22.1 µM (inactive)
GI50 [21]: 15.2 µM (inactive)
GI50 [22]: 16.6 µM (inactive)
GI50 [23]: 17.3 µM (inactive)
GI50 [24]: 25.3 µM (inactive)
GI50 [25]: 15.2 µM (inactive)
GI50 [26]: 19.1 µM (inactive)
GI50 [27]: 25.8 µM (inactive)
GI50 [28]: 20.4 µM (inactive)
GI50 [29]: 31.1 µM (inactive)
GI50 [30]: 14.5 µM (inactive)
GI50 [31]: 17.3 µM
GI50 [32]: 18.9 µM (inactive)
GI50 [33]: 13.4 µM (inactive)
GI50 [34]: 16.4 µM (inactive)
GI50 [35]: 14.8 µM (inactive)
GI50 [36]: 17.8 µM (inactive)
GI50 [37]: 18.5 µM (inactive)
GI50 [38]: 25.1 µM (inactive)
GI50 [39]: 25.1 µM (inactive)
GI50 [40]: 15.5 µM (inactive)
GI50 [41]: 26.7 µM (inactive)
GI50 [42]: 25.9 µM (inactive)
GI50 [43]: 19.4 µM (inactive)
GI50 [44]: 23.4 µM (inactive)
GI50 [45]: 14.2 µM (inactive)
GI50 [46]: 20.5 µM (inactive)
GI50 [47]: 21 µM (inactive)
GI50 [48]: 18.8 µM (inactive)
GI50 [49]: 15.2 µM (inactive)
GI50 [50]: 24 µM (inactive)
GI50 [51]: 4.62 µM (inactive)
GI50 [52]: 28.8 µM (inactive)
GI50 [53]: 20.8 µM (inactive)
GI50 [54]: 20.9 µM (inactive)
GI50 [55]: 22.4 µM (inactive)
GI50 [56]: 18.8 µM (inactive)
GI50 [57]: 17.6 µM (inactive)
GI50 [58]: 17.1 µM (inactive)

COC1=C(Br)C(O)C2(C=C1Br)CC(C(=O)NCCCCNC(=O)C1=NOC3(C=C(Br)C(OC)=C(Br)C3O)C1)=NO2 (centres undefined)
GI50 [1]: 31.8 µM (inactive)
GI50 [2]: 22.3 µM (inactive)
GI50 [3]: 30.6 µM (inactive)
GI50 [4]: 20.4 µM (inactive)
GI50 [5]: 20.6 µM (inactive)
GI50 [6]: 51.2 µM (inactive)
GI50 [7]: 16.7 µM (inactive)
GI50 [8]: 12.4 µM (inactive)
GI50 [9]: 10.1 µM (inactive)
GI50 [10]: 13.5 µM (inactive)
GI50 [11]: 19.9 µM (inactive)
GI50 [12]: 15.5 µM (inactive)
GI50 [13]: 37.1 µM (inactive)
GI50 [14]: 11.4 µM (inactive)
GI50 [15]: 20.3 µM (inactive)
GI50 [16]: 11.3 µM (inactive)
GI50 [17]: 33.6 µM (inactive)
GI50 [18]: 15.8 µM (inactive)
GI50 [19]: 4.73 µM (inactive)
GI50 [20]: 26.2 µM (inactive)
GI50 [21]: 31 µM (inactive)
GI50 [22]: 11.9 µM (inactive)
GI50 [23]: 25.8 µM (inactive)
GI50 [24]: 27.2 µM (inactive)
GI50 [25]: 16.9 µM (inactive)
GI50 [26]: 13.8 µM (inactive)
GI50 [27]: 54.3 µM (inactive)
GI50 [28]: 25.6 µM (inactive)
GI50 [29]: 31.6 µM (inactive)
GI50 [30]: 24.8 µM (inactive)
GI50 [31]: 49 µM
GI50 [32]: 12.4 µM (inactive)
GI50 [33]: 52.1 µM (inactive)
GI50 [34]: 16.3 µM (inactive)
GI50 [35]: 15.9 µM (inactive)
GI50 [36]: 21.8 µM (inactive)
GI50 [37]: 17 µM (inactive)
GI50 [38]: 65.3 µM (inactive)
GI50 [39]: 43.2 µM (inactive)
GI50 [40]: 18.2 µM (inactive)
GI50 [41]: 63.4 µM (inactive)
GI50 [42]: 23.7 µM (inactive)
GI50 [43]: 15.6 µM (inactive)
GI50 [44]: 11.7 µM (inactive)
GI50 [45]: 8.99 µM (inactive)
GI50 [46]: 40.5 µM (inactive)
GI50 [47]: 19.8 µM (inactive)
GI50 [48]: 16.3 µM (inactive)
GI50 [50]: 16.4 µM (inactive)
GI50 [51]: 25.5 µM (inactive)
GI50 [52]: 30.5 µM (inactive)
GI50 [53]: 37.3 µM (inactive)
GI50 [54]: 31.1 µM (inactive)
GI50 [55]: 25.1 µM (inactive)
GI50 [56]: 50.4 µM (inactive)
GI50 [57]: 26.3 µM (inactive)
GI50 [58]: 26.4 µM (inactive)
